Results on 17 compounds are retold here after patent publication US11986471B2, “Compounds and methods of use” (Tango Therapeutics, Inc., priority 2018, dated 2024).

Common to all, as to type: biochemical
For assay [1], the target named is T1, PRMT5 (Homo sapiens, UniProt O14744).
T1 construct: purchased Viva (custom protein)
Kind of assay: PRMT5 IC50 assay in the presence of SAM as cofactor. The source says:
(§1) Table 1a indicates IC50 values (μM) against PRMT5 for exemplary compounds in the presence of SAM as cofactor, with no cofactor and with MTA as cofactor, respectively (columns 3-5). […] The Ki values can be calculated from the IC50 values as described in the Examples section. As detailed in the Examples section, for the assay performed in the presence of SAM, IC50=Ki×1.5 (Ki=IC50/1.5). For the assay performed in the presence of MTA, IC50=Ki×13.5 (Ki=IC50/13.5). Column 6 indicates the ratio between the Ki of compounds in the presence of SAM and the Ki of compounds in the presence of MTA

Assay [2] deals with T1, PRMT5. The assay is described as follows: PRMT5 IC50 assay with no cofactor.
Text: as §1

For assay [3], the target named is T1, PRMT5. The assay is described as follows: PRMT5 IC50 assay in the presence of MTA as cofactor. Particulars: for IC50: PRMT5, MTA as cofactor.
Text: as §1

Where [4] appears, read: ratio between Ki in the presence of SAM and Ki in the presence of MTA.
Setting [5] is: ratio between the Ki in the presence of SAM and the Ki in the presence of MTA.

T1 sequence (O14744 whole entry): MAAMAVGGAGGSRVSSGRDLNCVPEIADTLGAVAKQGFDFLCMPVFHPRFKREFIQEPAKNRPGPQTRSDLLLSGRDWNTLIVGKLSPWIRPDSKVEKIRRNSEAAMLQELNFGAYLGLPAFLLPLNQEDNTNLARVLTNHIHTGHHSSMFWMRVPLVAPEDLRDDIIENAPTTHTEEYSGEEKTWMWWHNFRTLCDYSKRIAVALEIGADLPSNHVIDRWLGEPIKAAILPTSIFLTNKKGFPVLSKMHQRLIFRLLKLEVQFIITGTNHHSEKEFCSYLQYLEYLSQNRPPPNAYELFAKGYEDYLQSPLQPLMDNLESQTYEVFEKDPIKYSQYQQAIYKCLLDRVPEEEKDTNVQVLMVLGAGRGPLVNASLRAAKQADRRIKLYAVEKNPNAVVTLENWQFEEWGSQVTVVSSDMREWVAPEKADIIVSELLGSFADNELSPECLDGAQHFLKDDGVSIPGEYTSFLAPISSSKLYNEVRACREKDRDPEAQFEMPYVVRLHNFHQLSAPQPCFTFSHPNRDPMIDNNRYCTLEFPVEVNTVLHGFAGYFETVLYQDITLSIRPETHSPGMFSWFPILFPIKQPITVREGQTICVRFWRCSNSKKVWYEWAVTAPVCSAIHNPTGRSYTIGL
T1 sequence (Q9BQA1 whole entry partner): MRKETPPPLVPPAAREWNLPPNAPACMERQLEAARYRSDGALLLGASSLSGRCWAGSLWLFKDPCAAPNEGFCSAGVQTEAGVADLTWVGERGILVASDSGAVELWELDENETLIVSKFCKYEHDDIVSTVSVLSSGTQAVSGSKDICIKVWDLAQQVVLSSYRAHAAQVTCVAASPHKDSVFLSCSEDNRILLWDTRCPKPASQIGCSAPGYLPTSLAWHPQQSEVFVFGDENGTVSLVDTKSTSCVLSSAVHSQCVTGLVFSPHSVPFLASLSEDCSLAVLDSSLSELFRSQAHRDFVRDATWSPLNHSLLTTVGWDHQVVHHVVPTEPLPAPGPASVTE

As for `CC(=O)N1CC(Nc2cc(C(=O)NCC(O)CN3CCc4c(C)c(OCc5ocnc5C)cc(F)c4C3)nc(N3CCCCC3)n2)C1` (stereo not shown) [Compound 651], the IC50 (commonly the point on the concentration scale where inhibition reaches its midpoint) in assay [1] was in the range of 0.05 to 0.5 µM; in assay [2] (read-out: No Co-factor IC50), 0.5 to 5 µM; in assay [3], 0.05 to 0.5 µM. In addition, the “SAM/MTA Ratio” value in assay [3] (setting [4]) is “A (a Ki ratio greater than or equal to 10 fold between the Ki in the presence of SAM and the Ki in the presence of MTA)”.

With `CC(=O)N1CC(Nc2nc(C(=O)NC[C@H](O)CN3CCc4cc(OCc5ocnc5C)ccc4C3)cc(N3CCCCC3)n2)C1` [Compound 608, (S)-2-((1-acetylazetidin-3-yl)amino)-N-(2-hydroxy-3-(6-((4-methyloxazol-5-yl)methoxy)-3,4-dihydroisoquinolin-2(1H)-yl)propyl)-6-(piperidin-1-yl)pyrimidine-4-carboxamide], the values for the IC50 in assay [1], in assay [2] and in assay [3] were 0.5 to 5 µM, at least 5 µM and 0.05 to 0.5 µM, respectively. For the same compound, the “SAM/MTA Ratio” value in assay [3] (setting [5]) was “A (a Ki ratio greater than or equal to 10 fold between the Ki in the presence of SAM and the Ki in the presence of MTA)”.

With `CO[C@H]1C[C@@H](Nc2cc(C(=O)NC[C@H](O)CN3CCc4c(ccc(OCc5cnco5)c4C)C3)ccn2)C1` [Compound 535], the IC50 is 0.5 to 5 µM in assay [1], at least 5 µM in assay [2] and 0.05 to 0.5 µM in assay [3]. The “SAM/MTA Ratio” value in assay [3] (setting [5]) is “A (a Ki ratio greater than or equal to 10 fold between the Ki in the presence of SAM and the Ki in the presence of MTA)”.

Take `CC(=O)N1CC(Nc2cc(C(=O)NCC(O)CN3CCc4nc(OCc5ocnc5C)ccc4C3)nc(N3CCCCC3)n2)C1` (stereo not shown) [Compound 650]: the results for the IC50 in assay [1], in assay [2] (read-out: No Co-factor IC50) and in assay [3] were 0.05 to 0.5 µM, 0.5 to 5 µM and 0.05 to 0.5 µM, respectively. Besides, in assay [3] (setting [4]), the “SAM/MTA Ratio” value was “A (a Ki ratio greater than or equal to 10 fold between the Ki in the presence of SAM and the Ki in the presence of MTA)”.

Consider `CC1(CCC(=O)N2CCC(Nc3cc(C(=O)NC[C@H](O)CN4CCc5cc(OCc6cnco6)ccc5C4)ncn3)CC2)N=N1` [Compound 363, N-[(2S)-2-hydroxy-3-[6-(oxazol-5-ylmethoxy)-3N-dihydro-1H-isoquinolin-2-yl]propyl]-6-[[1-[3-(3-methyldiazirine-3-yl)propanoyl]-4-piperidyl]amino]pyrimidine-4-carboxamide], for which the IC50 is 0.05 to 0.5 µM in assay [1], 0.5 to 5 µM in assay [2] (read-out: No Co-factor IC50) and 0.05 to 0.5 µM in assay [3]. For the same compound, the “SAM/MTA Ratio” value in assay [3] (setting [4]) was “A (a Ki ratio greater than or equal to 10 fold between the Ki in the presence of SAM and the Ki in the presence of MTA)”.

Consider `O=C(NC[C@H](O)CN1CCc2cc(OCc3cnco3)ccc2C1)c1cc(NC2CCOCC2)ccn1` [Compound 511, (S)—N-(2-hydroxy-3-(6-(oxazol-5-ylmethoxy)-3,4-dihydroisoquinolin-2(1H)-yl)propyl)-4-((tetrahydro-2H-pyran-4-yl)amino)picolinamide], for which the half-maximal inhibitory concentration (IC50) in assay [1] was 0.5 to 5 µM; in assay [2], at least 5 µM; in assay [3], 0.5 to 5 µM. Also, the “SAM/MTA Ratio” value in assay [3] (setting [5]) was “A (a Ki ratio greater than or equal to 10 fold between the Ki in the presence of SAM and the Ki in the presence of MTA)”.

On to `Cc1ncoc1COc1ccc2c(c1)CCN(C[C@@H](O)CNC(=O)c1cc(NC3CCN(C)C(=O)C3)ncn1)C2` (stereo partly drawn) [Compound 613, N-[(2S)-2-hydroxy-3-{6-[(4-methyl-1,3-oxazol-5-yl)methoxy]-1,2,3,4-tetrahydroisoquinolin-2-yl}propyl]-6-[(1-methyl-2-oxopiperidin-4-yl)amino]pyrimidine-4-carboxamide], for which the IC50 in assay [1] is 0.05 to 0.5 µM; in assay [2], at least 5 µM; in assay [3], 0.05 to 0.5 µM.

For `O[C@@H](CNc1nccc(-c2sccc2Br)n1)CN1CCc2cc(OCc3cnco3)ccc2C1` [Compound 331, (S)-1-((4-(3-bromothiophen-2-yl)pyrimidin-2-yl)amino)-3-(6-(oxazol-5-ylmethoxy)-3,4-dihydroisoquinolin-2(1H)-yl)propan-2-ol], the IC50 in assay [1], in assay [2] (read-out: No Co-factor IC50) and in assay [3] was 0.5 to 5 µM in each case. Further, the “SAM/MTA Ratio” value in assay [3] (setting [4]) is “A (a Ki ratio greater than or equal to 10 fold between the Ki in the presence of SAM and the Ki in the presence of MTA)”.

Consider `CO[C@H]1C[C@H](Nc2cc(C(=O)NC[C@H](O)CN3CCc4c(ccc(OCc5cnco5)c4C)C3)ccn2)C1` [Compound 591, N-[(2S)-2-hydroxy-3-{5-methyl-6-[(1,3-oxazol-5-yl)methoxy]-1,2,3,4-tetrahydroisoquinolin-2-yl}propyl]-2-{[(1r,3r)-3-methoxycyclobutyl]amino}pyridine-4-carboxamide], for which the 50% inhibitory concentration (IC50) was 0.05 to 0.5 µM in assay [1], at least 5 µM in assay [2] and 0.05 to 0.5 µM in assay [3]. Besides, in assay [3] (setting [5]), the “SAM/MTA Ratio” value was “A (a Ki ratio greater than or equal to 10 fold between the Ki in the presence of SAM and the Ki in the presence of MTA)”.

With `Cc1ncoc1COc1ccc2c(c1)CCN(C[C@@H](O)CNC(=O)c1ccnc(NC3CCN(C)C(=O)C3)c1)C2` (stereo partly shown) [Compound 627], the values for the concentration for half-maximal inhibition (IC50) in assay [1], in assay [2] (read-out: No Co-factor IC50) and in assay [3] were 0.05 to 0.5 µM, at least 5 µM and 0.05 to 0.5 µM, respectively. Besides, the “SAM/MTA Ratio” value in assay [3] (setting [4]) is “A (a Ki ratio greater than or equal to 10 fold between the Ki in the presence of SAM and the Ki in the presence of MTA)”.

On to `CC(=O)N1C[C@@H]2[C@H](C1)[C@H]2Nc1cc(C(=O)NC[C@H](O)CN2CCc3cc(OCc4ocnc4C)ccc3C2)ncn1` [Compound 620, 6-{[(1R,5S,6R)-3-acetyl-3-azabicyclo[3.1.0]hexan-6-yl]amino}-N-[(2S)-2-hydroxy-3-[6-[(4-methyl-1,3-oxazol-5-yl)methoxy]-1,2,3,4-tetrahydroisoquinolin-2-yl]propyl]pyrimidine-4-carboxamide], for which the IC50 is 0.5 to 5 µM in assay [1], at least 5 µM in assay [2] and 0.5 to 5 µM in assay [3]. Further, the “SAM/MTA Ratio” value in assay [3] (setting [5]) was “A (a Ki ratio greater than or equal to 10 fold between the Ki in the presence of SAM and the Ki in the presence of MTA)”.

In the case of `Cc1c(OCc2cnco2)ccc2c1CCN(C[C@@H](O)CNC(=O)c1cc(NC3CCOCC3)ccn1)C2` [Compound 573, N-[(2S)-2-hydroxy-3-{5-methyl-6-[(1,3-oxazol-5-yl)methoxy]-1,2,3,4-tetrahydroisoquinolin-2-yl}propyl]-4-[(oxan-4-yl)amino]pyridine-2-carboxamide], the IC50 is 0.5 to 5 µM in assay [1], at least 5 µM in assay [2] and 0.5 to 5 µM in assay [3]. For the same compound, in assay [3] (setting [5]), the “SAM/MTA Ratio” value is “A (a Ki ratio greater than or equal to 10 fold between the Ki in the presence of SAM and the Ki in the presence of MTA)”.

With `CCCN(C)c1cc(C(=O)NC[C@H](O)CN2CCc3c(ccc(OCc4cnco4)c3Cl)C2)cc(NC2CCC2)n1` [Compound 453, (S)—N-(3-(5-chloro-6-(oxazol-5-ylmethoxy)-3N-dihydroisoquinolin-2(1H)-yl)-2-hydroxypropyl)-2-(cyclobutylamino)-6-(methyl(propyl)amino)isonicotinamide], the figures for the IC50 in assay [1], in assay [2] and in assay [3] were 0.5 to 5 µM, at least 5 µM and 0.5 to 5 µM, respectively. Besides, in assay [3] (setting [5]), the “SAM/MTA Ratio” value is “A (a Ki ratio greater than or equal to 10 fold between the Ki in the presence of SAM and the Ki in the presence of MTA)”.

Turning to `O=C(NC[C@H](O)CN1CCc2c(ccc(OCc3cnn[nH]3)c2Cl)C1)c1ccnc(NC2CCC2)c1` [Compound 269, N-[(2S)-3-[5-chloro-6-(1H-triazol-5-ylmethoxy)-3,4-dihydro-1H-isoquinolin-2-yl]-2-hydroxy-propyl]-2-(cyclobutylamino)pyridine-4-carboxamide], the IC50 was 0.5 to 5 µM in assay [1], at least 5 µM in assay [2] (read-out: No Co-factor IC50) and 0.5 to 5 µM in assay [3]. In assay [3] (setting [4]), the “SAM/MTA Ratio” value is “A (a Ki ratio greater than or equal to 10 fold between the Ki in the presence of SAM and the Ki in the presence of MTA)”.

As to `Cc1c(OCc2cnco2)ccc2c1CCN(C[C@@H](O)CNC(=O)c1ccnc(Nc3cccnc3)c1)C2` [Compound 531, N-[(2S)-2-hydroxy-3-{5-methyl-6-[(1,3-oxazol-5-yl)methoxy]-1,2,3,4-tetrahydroisoquinolin-2-yl}propyl]-2-[(pyridin-3-yl)amino]pyridine-4-carboxamide], the IC50 in assay [1] was 0.5 to 5 µM; in assay [2] it was at least 5 µM; in assay [3], 0.5 to 5 µM. In assay [3] (setting [5]), the “SAM/MTA Ratio” value was “A (a Ki ratio greater than or equal to 10 fold between the Ki in the presence of SAM and the Ki in the presence of MTA)”.

Turning to `CNC(=O)CN1CCC(Nc2cc(C(=O)NC[C@H](O)CN3CCc4c(ccc(OCc5cnco5)c4C)C3)ncn2)CC1` [Compound 524, N-[(2S)-2-hydroxy-3-{5-methyl-6-[(1,3-oxazol-5-yl)methoxy]-1,2,3,4-tetrahydroisoquinolin-2-yl}propyl]-6-{[1-[(methylcarbamoyl)methyl]piperidin-4-yl}amino)pyrimidine-4-carboxamide], the IC50 is 0.5 to 5 µM in assay [1], at least 5 µM in assay [2] and 0.5 to 5 µM in assay [3]. Further, in assay [3] (setting [5]), the “SAM/MTA Ratio” value was “A (a Ki ratio greater than or equal to 10 fold between the Ki in the presence of SAM and the Ki in the presence of MTA)”.

For `Cc1c(OCc2cnco2)ccc2c1CCN(C[C@@H](O)CNC(=O)c1cc(N[C@H]3C[C@H](C(=O)N4CCCCC4)C3)ncn1)C2` [Compound 526], the IC50 is 0.5 to 5 µM in assay [1], at least 5 µM in assay [2] and 0.05 to 0.5 µM in assay [3]. Also, the “SAM/MTA Ratio” value in assay [3] (setting [5]) was “A (a Ki ratio greater than or equal to 10 fold between the Ki in the presence of SAM and the Ki in the presence of MTA)”.
